Experimental data as given in patent US20210214368A1, “COMPOUNDS FOR THIOL-TRIGGERED COS AND/OR H2S RELEASE AND METHODS OF MAKING AND USING THE SAME” (University of Oregon, priority 2018, published 2021).

What was measured:
HeLa cells = experiment: Imaging of H2S delivery in HeLa cells with SF7-AM probe; type: cell-based; conditions: compound 50 μM 30 minutes, SF7-AM 5 μM
Procedure: In this example, H2S delivery from sulfenyl thiocarbamate compound 306a in HeLa cells was evaluated. HeLa cells were treated with Hoechst dye and SF7-AM (5 μM) in DMEM only for 5 minutes and then with DMEM only for 30 minutes (top row) or DMEM containing the compound (50 μM) for 30 minutes (bottom row). Cells were then washed with PBS and cell images were taken in PBS using a fluorescent microscope.

[1] = Thiol-triggered H2S release in PBS containing CA (MB assay); conditions: compound 50 μM
Procedure: To evaluate thiol effects on COS/H2S release from cyclic perthiocarbamate compound embodiments, compound 306a (50 μM) was incubated in PBS (pH 7.4, 10 mM) containing Cys or GSH (up to 4.0 mM) and CA (25 μg/mL) and H2S release was monitored by MB assay. […] Additionally, other thiol triggers, such as cysteine, homocysteine, and N-acetyl cysteine, were combined with compound 306a to evaluate if they would trigger the compound to release H2S.
In this example, GSH-triggered H2S release from compound 900 was evaluated. […] To improve the H2S releasing capacity of ATB-346, compound 900 was made by reacting ATB-346 with chlorocarbonyl sulfenyl chloride reagent (see Scheme 9). The resultant compound 900 was then added to PBS containing GSH and CA.
Release of H2S from compound 404c (25 μM) in the presence of L-cysteine or reduced glutathione (GSH) (500 μM, 20 equiv.) measured by the spectrophotometric methylene blue assay, with results shown in FIG. 17.
In this example, additional compounds, such as cyclic sulfenyl thiocarbamate compounds 306a-306e, were evaluated for their ability to release H2S upon exposure to a biological thiol, cysteine.
With the hybrid NSAID in hand, COS/H2S release in aqueous buffer was evaluated.

O=c1nc(-c2ccccc2)ss1 [Compound 306a]
SF7-AM (H2S probe) fluorescence in HeLa cells (HeLa cells): strong SF7-AM fluorescent signal
GSH-dependent H2S release ([1]; GSH up to 4.0 mM, CA 25 μg/mL, PBS pH 7.4): GSH-dependent H2S release was observed
H2S release in the presence of thiols GSH, Cys, Hcy, and NAC ([1]; PBS, CA): H2S release was observed
H2S release with GSSG, Lys, Ser, Gly, S2O3^2−, SO3^2−, SO4^2− ([1]; PBS, CA): did not activate the compound and minimal H2S release was observed
H2S release with penicillamine ([1]; PBS, CA): minimal H2S release
H2S release in the absence of thiol trigger ([1]; PBS, no thiol): Negligible H2S release was observed
